# Assay: Water sorption by dynamic vapour sorption (DVS)
# Type: physicochemical
# Details: solid state characterization; monohydrobromide
smiles,measurement,value
"Br.Cc1ccc(N2CCN(C)CC2)c2c1CC[C@@H](NC(=O)c1ccc(N3CCOCC3)cc1)C2 [Form B, (R)-N-[5-methyl-8-(4-methylpiperazin-1-yl)-1,2,3,4-tetrahydro-2-naphtyl]-4-morpholinobenzamide monohydrobromide]",hygroscopicity / water uptake in words,readily resorbs water again
